≈ marks a conversion by molar mass, not a printed value.

Assay [1] has as its system Klebsiella pneumoniae. Description: Minimum inhibitory concentration of compound for its inhibitory activity against Klebsiella pneumoniae growth at 2.4 ug/mL. Format: functional.
Assay [2] relates to Klebsiella pneumoniae. Description: Compound was tested for its ability to inhibit the growth of a clinical strain of Klebsiella pneumoniae at 0.01 ng/mL. Format: functional, organism-based.
Assay [3] concerns Klebsiella pneumoniae. Kind of assay: Compound was tested for its ability to inhibit the growth of a clinical strain of Klebsiella pneumoniae. Format: functional, organism-based.
Assay [4] is described as follows: Compound was tested for its ability to inhibit the growth of a clinical strain Ochromonas malhamensis. It counts as functional.
Assay [5] concerns Plasmodium falciparum. Kind of assay: Inhibition of Plasmodium falciparum. Format: functional, organism-based.
Assay [6] has as its system Klebsiella pneumoniae. Description: Minimum inhibitory concentration of compound for its inhibitory activity against Klebsiella pneumoniae growth at 2.60 ug/mL. Format: functional.
The subject of assay [7] is Klebsiella pneumoniae. Description: Minimum inhibitory concentration of compound for its inhibitory activity against Klebsiella pneumoniae growth at 0.002 ug/mL. It counts as functional.
The test system of assay [8] is Klebsiella pneumoniae. Kind of assay: Concentration required to inhibit the growth of a clinical strain of Klebsiella pneumoniae by 50%. It counts as functional, organism-based.
Assay [9] concerns Klebsiella pneumoniae. Description: Minimum inhibitory concentration of compound for its inhibitory activity against Klebsiella pneumoniae growth at 20.7 ug/mL. Format: functional.

As for `OC1O[C@H](CSc2ccc(Br)cc2)[C@@H](O)[C@H]1O` (stereo partly specified), the lowest concentration to inhibit growth in assay [1] (MIC) was 7.5 µM (≈ 2.41 µg/mL). The IC50 (as a rule, the midpoint of a concentration-inhibition curve) in [2] was found to be 375 nM.

On to `CCSC[C@H]1OC(O)[C@H](O)[C@@H]1O` (stereo partly specified), for which the values for the IC50 in assay [3], in [4] and in assay [5] were approximately 15 mM, approximately 75 µM and approximately 300 µM, respectively. In the case of `OC1O[C@H](CSc2ccc(F)cc2)[C@@H](O)[C@H]1O` (stereo partly specified), in assay [2], the concentration for half-maximal inhibition (IC50) came to 0.05 nM. Besides, 10 µM (≈ 2.6 µg/mL) was the least that counted as inhibitory in [6] (MIC). Turning to `OC1O[C@H](CSc2ccc(I)cc2)[C@@H](O)[C@H]1O` (stereo partly specified), the MIC – broadly, the lowest concentration that inhibits growth of the organism – in assay [7] stood at 5 nM (≈ 0.00184 µg/mL). For the compound `OC1O[C@H](CSc2ccc(C(F)(F)F)cc2)[C@@H](O)[C@H]1O` (stereo partly specified), the IC50 in assay [8] turned out to be 40 nM. For `OC1O[C@H](CSc2ccc(Cl)cc2)[C@@H](O)[C@H]1O` (stereo partly specified), in assay [9], the MIC is 75 µM (≈ 20.8 µg/mL). In assay [2], this compound gave an IC50 of 500 nM.

Source of the values: ChEMBL document CHEMBL1127125, “Synthesis and testing of substituted phenylthioribose analogs against Klebsiella pneumoniae” (Bioorg Med Chem Lett, 1993).
